From US20220296566A1, “COMBINATION PRODUCT CONTAINING LIMONOID COMPOUND AND ALPHA-GLUCOSIDASE INHIBITOR” (ZHEJIANG YANGSHENGTANG INSTITUTE OF NATURAL MEDICATION CO., …, priority 2019, published 2022)

Key:
Format in all cases: in vivo
[1] = test system: db/db mice; test: Blood glucose in mouse type II diabetes model, db/db mice (Example 2); conditions: single agent 0.04 g/kg per day by gavage, two weeks, 1 h after last administration, mean ± SD
Excerpt: (§1) Effects of limonoid compound, acarbose or combination thereof on blood glucose and leptin in mouse type II diabetes model
(§2) In the present example, db/db mice (line name BKS.Cg-Dock7^m+/+Lepr^db/Nju) were used to perform hypoglycemic efficacy evaluation test of animals (blood glucose level and leptin). The limonoid compound was selected from obacunone, isoobacunoic acid and obacunone glycoside, and acarbose single administration group, obacunone single administration group, isoobacunoic acid single administration group, obacunone glycoside single administered group, and respective combination thereof with acarbose administration groups were set.
(§3) Conditions for experimental feeding: as type II diabetes model mice, 6-week-old SPF-grade db/db mice were purchased from the Nanjing Model Biology Institute, and subjected to experimental feeding after 7 days of preliminary feeding. It should be noted that the conditions for raising the mice were as follows: the temperature was 23±1° C., the humidity was 55±10%, the lights were turned on between 7 am and 7 pm (the lights were turned off at other time), and the mice were allowed to freely take in water and feed. […]

[2] = test system: db/db mice; test: Serum leptin by Elisa in db/db mice (Example 2); conditions: single agent 0.04 g/kg per day by gavage, two weeks, mean ± SD
Excerpt: as §1, §2, §3

[3] = test system: STZ mice; test: Blood glucose in STZ mouse pancreatic islet β-cell injury model (Example 1); conditions: STZ ICR mice; single agent 0.02 g/kg per day by gavage, two weeks; 1 h after last administration; mean ± SD
Excerpt: Effects of limonoid compound, acarbose or combination thereof on blood glucose in mouse pancreatic islet (3-cell injury model […]
Gavage doses: the gavage dose was 0.02 g/kg per day for the limonin group, the gavage dose was 0.02 g/kg per day for the isolimonic acid group, the gavage dose was 0.02 g/kg per day for the limonin glycoside group, the gavage dose was 0.02 g/kg per day for the isolimonic acid glycoside group, the gavage dose of acarbose was 0.02 g/kg per day for the acarbose group, limonin at a dose of 0.01 g/kg and acarbose at a dose of 0.01 g/kg were simultaneously gavaged per day for the limonin/acarbose combination group, isolimonic acid at a dose of 0.01 g/kg and acarbose at a dose of 0.01 g/kg were simultaneously gavaged per day for the isolimonic acid/acarbose combination group, limonin glycoside at a dose of 0.01 g/kg and acarbose at a dose of 0.01 g/kg were simultaneously gavaged per day for the limonin glycoside/acarbose combination group, isolimonic acid glycoside at a dose of 0.01 g/kg and acarbose at a dose of 0.01 g/kg were simultaneously gavaged per day for the isolimonic acid glycoside/acarbose combination group, the gavage volume was 10 mL/kg, and the normal group and the model group were administrated with 10 mL/kg of distilled water. […] The data were expressed as mean and standard deviation. […]

Compound `C[C@H]1O[C@H](O[C@H]2[C@H](O)[C@@H](O)[C@@H](O[C@H]3[C@H](O)[C@@H](O)C(O)O[C@@H]3CO)O[C@@H]2CO)[C@H](O)[C@@H](O)[C@@H]1N[C@H]1C=C(CO)[C@@H](O)[C@H](O)[C@H]1O` (stereo partly drawn) [Acarbose, acarbose] has a Blood glucose value [1] of 16.9 ± 4.0 mmol/L, a Leptin [2] of 35.57 ± 2.98 pg/mL and a Blood glucose value [3] of 22.1 ± 3.4 mmol/L.
